This note sets out measurements from PubChem BioAssay (NCI).

Structures are written as SMILES.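 All cell lines were grown in 96-well plates and treated with compound for 48 hours. At the GI50, growth is halved. TGI: concentration producing complete growth inhibition.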

Among the test systems are DMS 114 small cell lung; DMS 273 small cell lung; HOP-18 NSCLC; LXFL 529 NSCLC; M19-MEL melanoma; XF 498 CNS; MDA-N; SNB-78 CNS; RXF-631 renal.
Common to all, as to experiment: inhibition of tumour cell growth, NCI panel, 48 h

On to `O=[N+]([O-])c1ccc(C[P+](c2ccccc2)(c2ccccc2)c2ccccc2)cc1`, for which the TGI with DMS 114 small cell lung is above 100 µM; in the test with DMS 273 small cell lung it was above 100 µM; in the test with HOP-18 NSCLC, above 100 µM; with LXFL 529 NSCLC, above 100 µM; with M19-MEL melanoma, 81.2 µM.
As to `CC1=C(c2ccccc2)C(c2ccccc2)=C(c2ccccc2)C2(c3ccccc3)C(=O)C(C)CN12` (stereo not given), the TGI in the test with DMS 273 small cell lung was above 100 µM; in the test with LXFL 529 NSCLC, above 100 µM; with M19-MEL melanoma, above 100 µM; in the test on XF 498 CNS, 82.8 µM.
With `CC(C)Cn1cnc2c(SCc3ccc(Cl)cc3Cl)nc(N)nc21`, in the test on MDA-N, the TGI was above 100 µM.
`CCc1ccccc1NC(=O)C1=C(C)NC(C)=C(C(=O)Nc2ccccc2CC)C1c1ccccc1Cl`: the TGI with DMS 114 small cell lung, with LXFL 529 NSCLC, in the test on M19-MEL melanoma, in the test with SNB-78 CNS and with XF 498 CNS was above 100 µM in each case.
Take `N#CC1(C#N)C2(c3ccccc3)OC(c3ccccc3)(c3cc4ccccc4cc32)C1(C#N)C#N`: the TGI in the test on DMS 114 small cell lung is 22.2 µM; in the test with DMS 273 small cell lung, 32 µM; with HOP-18 NSCLC, 17.8 µM; with LXFL 529 NSCLC, 3.14 µM; with MDA-N it was 34.4 µM.
Turning to `CCCCCCCCCCCc1nnc(N)o1`, the TGI in the test on DMS 273 small cell lung, in the test on LXFL 529 NSCLC, with M19-MEL melanoma, in the test on RXF-631 renal, with SNB-78 CNS and in the test with XF 498 CNS was above 100 µM each time.
As to `O=C(O)C1=C(O)C(C(=O)O)C23CCCCCCCCCCC12C(C(=O)O)C(O)=C3C(=O)O` (stereo not given), the TGI in the test on DMS 114 small cell lung, with DMS 273 small cell lung, with HOP-18 NSCLC, with LXFL 529 NSCLC, in the test on M19-MEL melanoma and in the test on XF 498 CNS was above 100 µM in each case.
Regarding `O.O.[NH-]C1(C(=O)O)CCCC1.[NH-]C1(C(=O)O)CCCC1.[Ni+2]`, in the test with MDA-N, the GI50 was above 100 µM and the TGI is above 100 µM.
As to `COc1cc(C(O)CCBr)c(OC)cc1C` (stereo not given), the TGI with MDA-N was above 20.9 µM.
With `CN(/N=C/c1cccc2cccnc12)c1ccc([N+](=O)[O-])cc1[N+](=O)[O-]`, the TGI was above 61.9 µM in the test with DMS 114 small cell lung; above 55.7 µM with DMS 273 small cell lung; above 100 µM in the test with HOP-18 NSCLC; above 100 µM in the test on LXFL 529 NSCLC; above 100 µM in the test on M19-MEL melanoma; above 100 µM in the test on MDA-N. Besides, the TGI in the test with RXF-631 renal was above 100 µM; in the test with SNB-78 CNS, 61.6 µM; with XF 498 CNS, 19.2 µM.
`COC(=O)C1CC23CCCN4CCC5(c6ccccc6N(C=O)C15CC2)C43` (stereo not given): in the test with MDA-N, the TGI was above 100 µM.
Turning to `O=C(O)CN(CC(=O)O)Cc1cc(C#Cc2ccc(C#Cc3ccccc3)cc2)cc(CN(CC(=O)O)CC(=O)O)n1`, the TGI with DMS 114 small cell lung is 47 µM; with DMS 273 small cell lung it was 23.5 µM; with HOP-18 NSCLC, above 100 µM; in the test on LXFL 529 NSCLC, above 76.4 µM; in the test on M19-MEL melanoma, 39.9 µM; with MDA-N it was above 100 µM. Moreover, the TGI with SNB-78 CNS and in the test on XF 498 CNS was above 100 µM throughout.
In the case of `COC1=C(N)C(=O)c2nc(C)ccc2C1=O`, the TGI in the test on DMS 114 small cell lung is 3.53 µM; in the test on DMS 273 small cell lung, 3.84 µM; in the test with HOP-18 NSCLC, 3.53 µM; in the test on LXFL 529 NSCLC, 6.21 µM; in the test on M19-MEL melanoma it was 0.715 µM; with SNB-78 CNS, 14.1 µM. For the same molecule, the TGI in the test on XF 498 CNS came out at 2.84 µM.
Regarding `Cc1nnn[n-]1.N.N.N.N.N.[Cl-].[Co+3]`, the GI50 in the test on DMS 273 small cell lung, with HOP-18 NSCLC and in the test on LXFL 529 NSCLC was above 100 µM in each case. Besides, the TGI in the test with DMS 273 small cell lung, in the test with HOP-18 NSCLC and with LXFL 529 NSCLC was above 100 µM throughout.
Regarding `COC(=O)CC1C[C@H](C#N)N(C(=O)c2ccccc2)C[C@@H]1CC[N+](=O)[O-]` (stereo not given in full), the TGI in the test on DMS 273 small cell lung, with HOP-18 NSCLC, in the test with LXFL 529 NSCLC, in the test on M19-MEL melanoma, in the test with SNB-78 CNS and in the test with XF 498 CNS was above 100 µM in each case.
As to `O/N=C1/C(=C/c2ccc3c(c2)OCO3)CCCC1C(NO)c1ccc2c(c1)OCO2` (stereo not given), the TGI is 60.7 µM in the test on DMS 114 small cell lung; 47.3 µM in the test with DMS 273 small cell lung; 42.5 µM in the test with HOP-18 NSCLC; 51.4 µM in the test with LXFL 529 NSCLC; 62 µM with M19-MEL melanoma; 87.7 µM with SNB-78 CNS. This molecule also yielded a TGI with XF 498 CNS of 62.2 µM.
As to `CS(=O)(=O)OC1CCC2(C#N)CCC1C2=O` (stereo not given), the TGI in the test on DMS 273 small cell lung, in the test on HOP-18 NSCLC, in the test on LXFL 529 NSCLC, with M19-MEL melanoma, with RXF-631 renal and with SNB-78 CNS was above 100 µM in each case. In the test with XF 498 CNS, this molecule came in with a TGI above 100 µM.
As to `C=C(C)C(O)CCC1(C)C=Cc2c(c(C)cc3c2[nH]c2ccccc23)O1` (stereo not given), the TGI with DMS 114 small cell lung is 25 µM; in the test with LXFL 529 NSCLC, 25 µM; with M19-MEL melanoma, 25 µM; in the test on MDA-N, 17.3 µM; with SNB-78 CNS, 25 µM; in the test on XF 498 CNS it was 25 µM.
`O=C1N(C2CCCCC2)CC12CCCCC2`: the TGI in the test with DMS 114 small cell lung, in the test on DMS 273 small cell lung, with HOP-18 NSCLC, in the test with M19-MEL melanoma, in the test with RXF-631 renal and in the test with SNB-78 CNS was above 100 µM throughout. Moreover, in the test with XF 498 CNS, the TGI was above 100 µM.
Take `CN(O)C(=O)SCC(NC(=O)CCC(N)C(=O)O)C(=O)NCC(=O)O` (stereo not given): the GI50 in the test on DMS 114 small cell lung, in the test with DMS 273 small cell lung, with HOP-18 NSCLC, in the test with LXFL 529 NSCLC and in the test with M19-MEL melanoma was above 2000 µM in each case. In addition, the TGI in the test with DMS 114 small cell lung is above 2000 µM; with DMS 273 small cell lung, above 2000 µM; with HOP-18 NSCLC, above 2000 µM; with LXFL 529 NSCLC it was above 2000 µM; with M19-MEL melanoma, above 2000 µM; with SNB-78 CNS, above 2 µM.
